In patent publication US8637511B2, “Aminopyrimidines useful as kinase inhibitors” (Vertex Pharmaceuticals Incorporated, priority 2005, dated 2014):
Where two headings read alike, the source gives them in different places.

Assays:
JAK3 = biological target: T1, JAK3 (Homo sapiens, UniProt P52333); experiment: biochemical
T1 sequence (P52333 1-1124): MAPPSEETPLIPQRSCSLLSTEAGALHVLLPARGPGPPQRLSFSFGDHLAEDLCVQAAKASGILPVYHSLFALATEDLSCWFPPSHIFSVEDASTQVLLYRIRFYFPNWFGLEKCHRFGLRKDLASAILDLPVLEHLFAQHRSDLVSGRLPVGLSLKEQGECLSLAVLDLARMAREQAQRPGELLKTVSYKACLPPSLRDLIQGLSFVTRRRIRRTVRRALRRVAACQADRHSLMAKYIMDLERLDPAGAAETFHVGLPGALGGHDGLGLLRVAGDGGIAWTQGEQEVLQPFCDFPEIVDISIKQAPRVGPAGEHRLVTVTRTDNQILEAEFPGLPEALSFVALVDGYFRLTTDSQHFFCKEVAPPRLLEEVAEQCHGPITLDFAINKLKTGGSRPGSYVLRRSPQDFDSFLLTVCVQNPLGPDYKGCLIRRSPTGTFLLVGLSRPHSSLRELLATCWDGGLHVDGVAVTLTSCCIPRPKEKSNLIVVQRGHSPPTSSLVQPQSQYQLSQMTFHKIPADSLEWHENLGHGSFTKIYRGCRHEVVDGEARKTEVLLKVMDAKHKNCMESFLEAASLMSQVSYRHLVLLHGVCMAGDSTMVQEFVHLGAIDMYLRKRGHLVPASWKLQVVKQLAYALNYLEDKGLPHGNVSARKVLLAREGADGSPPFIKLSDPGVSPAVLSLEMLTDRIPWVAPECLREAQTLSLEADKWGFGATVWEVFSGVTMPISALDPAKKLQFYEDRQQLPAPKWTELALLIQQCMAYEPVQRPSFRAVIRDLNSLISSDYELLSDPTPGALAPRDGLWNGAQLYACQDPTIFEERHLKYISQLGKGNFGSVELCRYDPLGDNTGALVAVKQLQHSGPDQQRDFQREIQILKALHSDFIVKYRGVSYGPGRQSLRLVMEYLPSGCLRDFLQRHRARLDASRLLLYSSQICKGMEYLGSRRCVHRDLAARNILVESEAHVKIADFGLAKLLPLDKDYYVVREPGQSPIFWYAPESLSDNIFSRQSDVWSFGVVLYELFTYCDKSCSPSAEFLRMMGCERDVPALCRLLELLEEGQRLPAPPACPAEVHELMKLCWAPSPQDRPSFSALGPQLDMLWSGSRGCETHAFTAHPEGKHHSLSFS
Procedure: Reactions were carried out in a kinase buffer containing 100 mM HEPES (pH 7.4), 1 mM DTT, 10 mM MgCl2, 25 mM NaCl, and 0.01% BSA. Substrate concentrations in the assay were 5 μM ATP (200 uCi/μmole ATP) and 1 μM poly(Glu)4Tyr. Reactions were carried out at 25° C. and 1 nM JAK3.
To each well of a 96 well polycarbonate plate was added 1.5 μl of a candidate JAK3 inhibitor along with 50 μl of kinase buffer containing 2 μM poly(Glu)4Tyr and 10 μM ATP. This was then mixed and 50 μl of kinase buffer containing 2 nM JAK3 enzyme was added to start the reaction. After 20 minutes at room temperature (25 C), the reaction was stopped with 50 μl of 20% trichloroacetic acid (TCA) that also contained 0.4 mM ATP. The entire contents of each well were then transferred to a 96 well glass fiber filter plate using a TomTek Cell Harvester. After washing, 60 μl of scintillation fluid was added and ^33P incorporation detected on a Perkin Elmer TopCount.

FLT-3 = biological target: T2, FLT-3 (Homo sapiens, UniProt P36888); experiment: FLT-3 inhibition assay, radiometric filter-binding; format: biochemical
T2 sequence (P36888 27-993): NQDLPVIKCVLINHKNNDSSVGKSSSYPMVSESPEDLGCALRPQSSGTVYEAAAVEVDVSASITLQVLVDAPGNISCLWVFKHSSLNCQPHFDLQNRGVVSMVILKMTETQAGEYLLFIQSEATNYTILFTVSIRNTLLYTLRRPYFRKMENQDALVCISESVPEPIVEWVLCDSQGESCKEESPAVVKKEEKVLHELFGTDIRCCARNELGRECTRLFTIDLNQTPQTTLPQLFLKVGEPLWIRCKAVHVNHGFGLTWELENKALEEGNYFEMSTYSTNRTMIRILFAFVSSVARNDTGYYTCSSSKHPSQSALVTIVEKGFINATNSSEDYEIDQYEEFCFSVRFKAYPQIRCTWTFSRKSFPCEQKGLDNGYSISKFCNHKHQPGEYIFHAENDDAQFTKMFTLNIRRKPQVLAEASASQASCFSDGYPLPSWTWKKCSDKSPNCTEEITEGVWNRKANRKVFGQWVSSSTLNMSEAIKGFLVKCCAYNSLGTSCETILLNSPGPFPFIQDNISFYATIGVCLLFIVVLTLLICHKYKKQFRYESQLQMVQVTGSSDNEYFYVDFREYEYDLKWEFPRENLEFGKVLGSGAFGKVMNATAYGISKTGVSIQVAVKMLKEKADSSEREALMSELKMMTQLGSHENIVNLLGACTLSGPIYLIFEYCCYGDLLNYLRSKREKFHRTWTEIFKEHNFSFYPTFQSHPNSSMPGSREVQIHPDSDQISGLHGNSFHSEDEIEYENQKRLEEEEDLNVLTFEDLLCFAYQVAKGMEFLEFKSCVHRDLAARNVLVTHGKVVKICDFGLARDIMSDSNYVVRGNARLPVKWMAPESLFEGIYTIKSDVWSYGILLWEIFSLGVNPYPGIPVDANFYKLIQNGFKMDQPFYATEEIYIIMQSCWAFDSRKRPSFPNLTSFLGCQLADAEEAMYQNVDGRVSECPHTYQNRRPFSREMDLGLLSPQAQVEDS

Colo205 cells = experiment: Analysis of cell proliferation and viability; format: cell-based; settings: Homo sapiens, COLO 205, Colo205 cells, read-out: IC50 value

Structure (SMILES) | Ki (JAK3) | Ki (FLT-3) | IC50 (Colo205 cells; incubated for 72 hours) | IC50 (Colo205 cells; incubated for 96 hours) | Ki (JAK3; read-out: JAK3 Ki value) | Ki (FLT-3; read-out: FLT-3 Ki value)
Cc1cc(Nc2cc(N3CC(C#N)C3)nc(Sc3ccc(NC(=O)c4ccccc4Cl)cc3)n2)n[nH]1 [Compound 16] | 10 to 500 nM | 50 to 150 nM | 30 to 200 nM | 50 to 1000 nM | – | –
CC1=NN=C(Nc2cc(N3CCC3)nc(Sc3ccc(NC(=O)c4cccc(C(F)(F)F)c4F)cc3)n2)C1 [Compound 55] | 10 to 500 nM | 150 to 1000 nM | – | 50 to 1000 nM | – | –
CCC(=O)Nc1ccc(Sc2nc(Nc3cc(C)n[nH]3)cc(N3CC(C)(C#N)C3)n2)cc1 [Compound 79] | – | – | – | 50 to 1000 nM | 10 to 500 nM | ≤ 50 nM
CCC(=O)Nc1ccc(Sc2nc(Nc3cc(C)n[nH]3)cc(N3CC(C)(NC(C)(C)C)C3)n2)cc1 [Compound 80] | 10 to 500 nM | – | – | ≤ 50 nM | – | 50 to 150 nM
CCC(=O)Nc1ccc(Sc2nc(Nc3cc(C)n[nH]3)cc(N3CC(O)(C(F)(F)F)C3)n2)cc1 [Compound 94] | – | ≤ 50 nM | – | 50 to 1000 nM | 10 to 500 nM | –
Cc1cc(Nc2cc(N3CCC3)nc(Oc3ccc(NC(=O)c4ccccc4C(F)(F)F)cc3)n2)[nH]n1 [Compound 134] | 10 to 500 nM | 50 to 150 nM | 30 to 200 nM | – | – | –
Cc1cc(Nc2cc(N3CCC3)nc(Sc3ccc(NC(=O)c4nccn4C)cc3)n2)n[nH]1 [Compound 166] | – | 150 to 1000 nM | – | > 1000 nM | 10 to 500 nM | –
Cc1ccc2cc(Sc3nc(Nc4cc(C)[nH]n4)cc(N4CC(C5CCC(F)C5)C4)n3)ccc2n1 (centres unmarked) [Compound 198] | – | 50 to 150 nM | ≤ 30 nM | – | 10 to 500 nM | –
CC(=O)Nc1cccc(Sc2nc(Nc3cc(C)n[nH]3)cc(N3CC(F)(C4CC4)C3)n2)c1 [Compound 188] | – | 50 to 150 nM | > 200 nM | – | 10 to 500 nM | –
Cc1cc(Nc2cc(N3CCC3)nc(Sc3ccc(NC(=O)c4c(F)cccc4N4CCC4)cc3)n2)n[nH]1 [Compound 8] | 10 to 500 nM | 50 to 150 nM | – | 50 to 1000 nM | – | –
Cc1cc(Nc2cc(N3CC(C)(O)C3)nc(Sc3ccc(NC(=O)c4ccccc4C(F)(F)F)cc3)n2)[nH]n1 [Compound 115] | ≤ 10 nM | 50 to 150 nM | 30 to 200 nM | – | – | –
Cc1cc(Nc2cc(N3CC(N4CCCC4)C3)nc(Sc3ccc4ncccc4c3)n2)n[nH]1 [Compound 159] | ≤ 10 nM | ≤ 50 nM | ≤ 30 nM | – | – | –
CCC(=O)Nc1ccc(Sc2nc(Nc3cc(C)[nH]n3)cc(N3CC(O)C3)n2)cc1 [Compound 15] | 10 to 500 nM | 50 to 150 nM | – | 50 to 1000 nM | – | –
Cc1cc(Nc2cc(N3CC(N4CCOCC4)C3)nc(Sc3ccc(NC(=O)CC(F)(F)F)cc3)n2)[nH]n1 [Compound 199] | – | ≤ 50 nM | ≤ 30 nM | – | ≤ 10 nM | –
Cc1cc(Nc2cc(N3CCC3)nc(Sc3ccc(NC(=O)C4CC4(F)F)cc3)n2)[nH]n1 (centres unmarked) [Compound 112] | – | – | > 200 nM | – | ≤ 10 nM | ≤ 50 nM
Cc1cc(Nc2cc(N3CCC3)nc(Sc3cccc(NC(=O)c4ccccc4Cl)c3)n2)[nH]n1 [Compound 49] | – | 150 to 1000 nM | – | > 1000 nM | 10 to 500 nM | –
CCC(=O)Nc1ccc(Sc2nc(Nc3cc(C4CC4)n[nH]3)cc(N3CC(C)(O)C3)n2)cc1 [Compound 76] | ≤ 10 nM | ≤ 50 nM | – | 50 to 1000 nM | – | –
Cc1ccc(C(=O)Nc2ccc(Sc3nc(Nc4cc(C)[nH]n4)cc(N4CCC4)n3)cc2)cc1 [Compound 28] | 10 to 500 nM | 150 to 1000 nM | – | 50 to 1000 nM | – | –

Structure (SMILES) | Ki (JAK3) | Ki (FLT-3) | IC50 (Colo205 cells; incubated for 72 hours) | IC50 (Colo205 cells; incubated for 96 hours) | Ki (JAK3; read-out: JAK3 Ki value) | Ki (FLT-3; read-out: FLT-3 Ki value)
Cc1cnc(Nc2cc(N3CC(N(C)C)C3)nc(Sc3ccc(NC(=O)C4CC4)cc3)n2)s1 [Compound 1] | 10 to 500 nM | 50 to 150 nM | – | 50 to 1000 nM | – | –
Cc1cc(Nc2cc(N3CCC3)nc(Sc3ccc(NC(=O)c4ccccc4N(C)C)cc3)n2)[nH]n1 [Compound 124] | 500 to 2000 nM | – | > 200 nM | – | – | 150 to 1000 nM
CCNC(=O)c1ccc(Sc2nc(Nc3cc(C)[nH]n3)cc(N3CCC3)n2)cc1 [Compound 20] | 10 to 500 nM | 50 to 150 nM | – | 50 to 1000 nM | – | –
Cc1cc(Nc2cc(N3CC(C)C3)nc(Sc3ccc(NC(=O)c4ccccc4Cl)cc3)n2)n[nH]1 [Compound 39] | – | 50 to 150 nM | – | 50 to 1000 nM | 10 to 500 nM | –
CCC(=O)Nc1ccc(Sc2nc(Nc3cc(C4CC4)n[nH]3)cc(N3CC(N4CCOCC4)C3)n2)cc1 [Compound 78] | – | ≤ 50 nM | – | ≤ 50 nM | ≤ 10 nM | –
COC1CN(c2cc(Nc3cc(C)n[nH]3)nc(Sc3ccc(NC(=O)c4ccccc4C(F)(F)F)cc3)n2)C1 [Compound 126] | – | 50 to 150 nM | 30 to 200 nM | – | 10 to 500 nM | –
Cc1cc(Nc2cc(N3CCC3)nc(Sc3ccc(NC(=O)CC(F)(F)F)cc3)n2)n[nH]1 [Compound 40] | – | 50 to 150 nM | 30 to 200 nM | 50 to 1000 nM | 10 to 500 nM | –
Cc1cc(Nc2cc(N3CC(F)C3)nc(Sc3ccc(NC(=O)c4ccccc4Cl)cc3)n2)[nH]n1 [Compound 60] | 10 to 500 nM | – | – | 50 to 1000 nM | – | 50 to 150 nM
CCCNC(=O)Nc1ccc(Sc2nc(Nc3cc(C)[nH]n3)cc(N3CCC3)n2)cc1 [Compound 73] | – | 50 to 150 nM | – | > 1000 nM | 500 to 2000 nM | –
Cc1cc(Nc2cc(N3CC(N4CCOCC4)C3)nc(Sc3ccc(NC(=O)C4(C(F)(F)F)CC4)cc3)n2)[nH]n1 [Compound 191] | – | – | ≤ 30 nM | – | 10 to 500 nM | 150 to 1000 nM
CC1=NN=C(Nc2cc(N3CCC3)nc(Sc3ccc(NC(=O)c4ccccc4)cc3)n2)C1 [Compound 52] | 10 to 500 nM | – | – | 50 to 1000 nM | – | 150 to 1000 nM
Cc1cc(Nc2cc(N3CCC3)nc(Sc3ccc(NC(=O)Cc4cccc(Cl)c4)cc3)n2)[nH]n1 [Compound 58] | – | – | – | 50 to 1000 nM | 500 to 2000 nM | 150 to 1000 nM
Cc1cc(Nc2cc(N3CCC3)nc(Sc3ccc(NC(=O)C4CC4)cc3)n2)n[nH]1 [Compound 17] | 10 to 500 nM | – | – | 50 to 1000 nM | – | 50 to 150 nM
O=C(CC(F)(F)F)Nc1ccc(Sc2nc(Nc3cc[nH]n3)cc(N3CC(F)(C4CC4)C3)n2)cc1 [Compound 148] | 10 to 500 nM | 50 to 150 nM | > 200 nM | – | – | –
CCC(=O)Nc1ccc(Sc2nc(C#CC(C)(C)N3CCC3)cc(Nc3cc(C)n[nH]3)n2)cc1 [Compound 77] | 500 to 2000 nM | 150 to 1000 nM | – | 50 to 1000 nM | – | –
Cc1cc(Nc2cc(N3CCC3)nc(Sc3ccc(NS(C)(=O)=O)cc3)n2)[nH]n1 [Compound 150] | ≤ 10 nM | – | > 200 nM | – | – | ≤ 50 nM
Cc1cc(Nc2cc(N3CCC3)nc(Sc3ccc(NC(=O)c4ccc(Cl)cc4Cl)cc3)n2)n[nH]1 [Compound 162] | 10 to 500 nM | 150 to 1000 nM | – | 50 to 1000 nM | – | –
Cc1cnc(Nc2cc(N3CC(O)C3)nc(Sc3ccc(NC(=O)C4CC4)cc3)n2)s1 [Compound 3] | – | ≤ 50 nM | – | > 1000 nM | 10 to 500 nM | –
